“And” between values parts separate entries of the source, which are not always exact repeats. Equal entries are not always repeated.
What was measured:
Conditions in all cases: incubation time: 72 h
[1] = tested on: Hs578T; test: drug sensitivity score (DSS), CellTiter-Glo (DSS (AUC-based score)); higher = stronger drug effect (viability inhibition or cytotoxicity); extreme values may be limits of the assay
Summary of the method: (§1)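 Breast cancer cell lines were seeded in 20 µl suspension into 384-well plates already holding compound and incubated for 72 h. Each compound was tested at 5 concentrations in 10-fold steps across its own 10,000-fold range. Plates were normalised to 0.1 % DMSO and a positive kill control after CellTox Green and then CellTiter-Glo readings. The area under the fitted dose-response curve served as the basis for the drug sensitivity score.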

[2] = tested on: HCC1143; test: as above
Summary of the method: as §1

[3] = tested on: DU-4475; test: as above
Summary of the method: as §1

[4] = tested on: SK-BR-3; test: as above
Summary of the method: as §1

[5] = tested on: MCF-10A; test: as above
Summary of the method: as §1

[6] = tested on: CAL-120; test: as above
Summary of the method: as §1

[7] = tested on: BT-549; test: as above
Summary of the method: as §1

[8] = tested on: CAL-148; test: as above
Summary of the method: as §1

[9] = tested on: MDA-MB-453; test: as above
Summary of the method: as §1

[10] = tested on: HDQ-P1; test: as above
Summary of the method: as §1

[11] = tested on: MDA-MB-468; test: as above
Summary of the method: as §1

[12] = tested on: BT-474; test: as above
Summary of the method: as §1

[13] = tested on: MDA-MB-231; test: as above
Summary of the method: as §1

[14] = tested on: Hs578T; test: normalised viability (% of control), CellTiter-Blue; higher = more viable cells (about 100 = DMSO control)
Summary of the method: (§2)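 Breast cancer cell lines in 20 µl suspension were seeded onto 384-well plates pre-loaded with compound dissolved in 5 µl medium, then incubated 72 h. CellTiter-Blue reagent (2.5 µl) was added for 2 h at 37 °C and fluorescence read at 560/590 nm. Each plate was normalised to vehicle (100) and a positive kill control (0), with Z'-factor quality control. The value is normalised viability at one listed concentration of the series.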

[15] = tested on: MFM-223; test: as above
Summary of the method: as §2

[16] = tested on: HCC1143; test: as above
Summary of the method: as §2

[17] = tested on: DU-4475; test: as above
Summary of the method: as §2

[18] = tested on: BT-549; test: as above
Summary of the method: as §2

[19] = tested on: HCC1937; test: as above
Summary of the method: as §2

[20] = tested on: CAL-148; test: as above
Summary of the method: as §2

[21] = tested on: MDA-MB-453; test: as above
Summary of the method: as §2

[22] = tested on: HDQ-P1; test: as above
Summary of the method: as §2

[23] = tested on: CAL-51; test: as above
Summary of the method: as §2

[24] = tested on: MDA-MB-231; test: as above
Summary of the method: as §2

SMILES: CC(C)(C)Cn1c(N)nc2ccc(-c3[nH]c(C(C)(C)C)nc3-c3ccc(F)cc3)nc21
- drug sensitivity score [1]: 0
- drug sensitivity score [2]: 0
- drug sensitivity score [3]: 0
- drug sensitivity score [4]: 0.963
- drug sensitivity score [5]: 3.14
- drug sensitivity score [6]: 0.0489
- drug sensitivity score [7]: 1.72
- drug sensitivity score [8]: 0
- drug sensitivity score [9]: 1.72
- drug sensitivity score [10]: 0
- drug sensitivity score [11]: 2.74
- drug sensitivity score [12]: 0.606
- drug sensitivity score [13]: 0

SMILES: Cn1cc(C[C@@H](N)C(=O)O)c2ccccc21 [1-methyl-D-tryptophan]
- drug sensitivity score [1]: 0
- drug sensitivity score [2]: 0
- drug sensitivity score [3]: 0
- drug sensitivity score [4]: 0
- drug sensitivity score [5]: 0
- drug sensitivity score [6]: 0
- drug sensitivity score [7]: 0
- drug sensitivity score [8]: 0
- drug sensitivity score [9]: 0
- drug sensitivity score [10]: 0
- drug sensitivity score [11]: 0
- drug sensitivity score [12]: 0
- drug sensitivity score [13]: 0

SMILES: CC[C@H](CC#N)OC(=O)N[C@@H](C)c1cccc(NC(=O)Nc2ccc(-c3cnco3)c(OC)c2)c1 [AVN944]
- drug sensitivity score [1]: 10.1
- drug sensitivity score [2]: 11.7
- drug sensitivity score [3]: 13.4
- drug sensitivity score [4]: 9.68
- drug sensitivity score [5]: 8.88
- drug sensitivity score [6]: 8.08
- drug sensitivity score [7]: 15.9
- drug sensitivity score [8]: 12.5
- drug sensitivity score [9]: 0
- drug sensitivity score [10]: 11.7
- drug sensitivity score [11]: 17.1
- drug sensitivity score [12]: 8.56
- drug sensitivity score [13]: 9.58

SMILES: Cc1c(N)nc([C@H](CC(N)=O)NC[C@H](N)C(N)=O)nc1C(=O)N[C@H](C(=O)N[C@H](C)[C@@H](O)[C@H](C)C(=O)N[C@H](C(=O)NCCc1nc(-c2nc(C(=O)NCCC[S+](C)C)cs2)cs1)[C@@H](C)O)[C@@H](OC1OC(CO)C(O)C(O)C1OC1OC(CO)C(O)C(OC(N)=O)C1O)c1cnc[nH]1 (stereo partly specified) [Bleomycin]
- drug sensitivity score [1]: 0
- drug sensitivity score [2]: 4.08
- drug sensitivity score [3]: 0
- drug sensitivity score [4]: 2.43
- drug sensitivity score [5]: 0
- drug sensitivity score [6]: 0.67
- drug sensitivity score [7]: 8.65
- drug sensitivity score [8]: 4.27
- drug sensitivity score [9]: 0
- drug sensitivity score [10]: 0
- drug sensitivity score [11]: 0
- drug sensitivity score [12]: 0
- drug sensitivity score [13]: 0
- normalised viability ([14]; 10 nM): 90.3%
- normalised viability ([14]; 1000 nM): 64.3%
- normalised viability ([14]; 10000 nM): 50%
- normalised viability ([15]; 10 nM): 106%
- normalised viability ([15]; 1000 nM): 107%
- normalised viability ([15]; 10000 nM): 100%
- normalised viability ([16]; 10 nM): 74.6%
- normalised viability ([16]; 1000 nM): 64.2%
- normalised viability ([16]; 10000 nM): 49.4%
- normalised viability ([17]; 3 nM): 117%
- normalised viability ([17]; 30 nM): 84.4%
- normalised viability ([17]; 100 nM): 116%
- normalised viability ([18]; 10 nM): 87.5%
- normalised viability ([18]; 1000 nM): 57.1%
- normalised viability ([18]; 10000 nM): 62.4%
- normalised viability ([19]; 10 nM): 92.2%
- normalised viability ([19]; 1000 nM): 54.7%
- normalised viability ([19]; 10000 nM): 28.2%
- normalised viability ([20]; 3 nM): 88%
- normalised viability ([20]; 30 nM): 82.5%
- normalised viability ([20]; 100 nM): 87%
- normalised viability ([21]; 3 nM): 103%
- normalised viability ([21]; 30 nM): 106%
- normalised viability ([21]; 100 nM): 100%
- normalised viability ([22]; 3 nM): 80.9%
- normalised viability ([22]; 30 nM): 88.5%
- normalised viability ([22]; 100 nM): 27.8%
- normalised viability ([23]; 3 nM): 97.6%
- normalised viability ([23]; 30 nM): 96%
- normalised viability ([23]; 100 nM): 96.3%
- normalised viability ([24]; 10 nM): 88.7%
- normalised viability ([24]; 1000 nM): 70%
- normalised viability ([24]; 10000 nM): 60.3%

SMILES: Cc1cc2c(F)c(Oc3ncnn4cc(OC[C@@H](C)O)c(C)c34)ccc2[nH]1 [Brivanib]
- drug sensitivity score [1]: 0
- drug sensitivity score [2]: 0
- drug sensitivity score [3]: 0
- drug sensitivity score [4]: 0
- drug sensitivity score [5]: 0
- drug sensitivity score [6]: 0
- drug sensitivity score [7]: 0
- drug sensitivity score [8]: 0
- drug sensitivity score [9]: 0
- drug sensitivity score [10]: 0
- drug sensitivity score [11]: 0
- drug sensitivity score [12]: 0
- drug sensitivity score [13]: 0
- normalised viability ([14]; 1 nM): 98.1%
- normalised viability ([14]; 100 nM): 109%
- normalised viability ([14]; 1000 nM): 95.7%
- normalised viability ([15]; 1 nM): 95.5%
- normalised viability ([15]; 100 nM): 92.8%
- normalised viability ([15]; 1000 nM): 97.8%
- normalised viability ([16]; 1 nM): 85.2%
- normalised viability ([16]; 100 nM): 83.3%
- normalised viability ([16]; 1000 nM): 84.3%
- normalised viability ([17]; 0.3 nM): 102%
- normalised viability ([17]; 3 nM): 93.6%
- normalised viability ([17]; 10 nM): 93.4%
- normalised viability ([18]; 1 nM): 107%
- normalised viability ([18]; 100 nM): 90.6%
- normalised viability ([18]; 1000 nM): 109%
- normalised viability ([19]; 1 nM): 87.8%
- normalised viability ([19]; 100 nM): 104%
- normalised viability ([19]; 1000 nM): 97.6%
- normalised viability ([20]; 0.3 nM): 92.7%
- normalised viability ([20]; 3 nM): 90.8%
- normalised viability ([20]; 10 nM): 93.1%
- normalised viability ([21]; 0.3 nM): 99.6%
- normalised viability ([21]; 3 nM): 110%
- normalised viability ([21]; 10 nM): 101%
- normalised viability ([22]; 0.3 nM): 94.9%
- normalised viability ([22]; 3 nM): 115%
- normalised viability ([22]; 10 nM): 96.3%
- normalised viability ([23]; 0.3 nM): 96.7%
- normalised viability ([23]; 3 nM): 96.8%
- normalised viability ([23]; 10 nM): 95.7%
- normalised viability ([24]; 1 nM): 113%
- normalised viability ([24]; 100 nM): 89.2%
- normalised viability ([24]; 1000 nM): 99.2%

SMILES: CCCCCOC(=O)Nc1nc(=O)n([C@@H]2O[C@H](C)[C@@H](O)[C@H]2O)cc1F [Capecitabine]
- drug sensitivity score [1]: 0
- drug sensitivity score [2]: 0
- drug sensitivity score [3]: 0
- drug sensitivity score [4]: 0
- drug sensitivity score [5]: 0
- drug sensitivity score [6]: 0
- drug sensitivity score [7]: 0
- drug sensitivity score [8]: 0
- drug sensitivity score [9]: 0
- drug sensitivity score [10]: 0
- drug sensitivity score [11]: 0
- drug sensitivity score [12]: 0
- drug sensitivity score [13]: 0
- normalised viability ([14]; 10 nM): 105% and 116%
- normalised viability ([14]; 1000 nM): 101% and 104%
- normalised viability ([14]; 10000 nM): 107% and 93.6%
- normalised viability ([15]; 10 nM): 83.5% and 100%
- normalised viability ([15]; 1000 nM): 93.6% and 100%
- normalised viability ([15]; 10000 nM): 90.6% and 99.6%
- normalised viability ([16]; 10 nM): 77.9% and 97.9%
- normalised viability ([16]; 1000 nM): 89.9% and 103%
- normalised viability ([16]; 10000 nM): 84.2% and 91.9%
- normalised viability ([17]; 3 nM): 91.8% and 93.5%
- normalised viability ([17]; 30 nM): 83.6% and 88.7%
- normalised viability ([17]; 100 nM): 90.9% and 114%
- normalised viability ([18]; 10 nM): 91.7% and 86.6%
- normalised viability ([18]; 1000 nM): 96% and 104%
- normalised viability ([19]; 10 nM): 80.9% and 86%
- normalised viability ([19]; 1000 nM): 88% and 75.8%
- normalised viability ([19]; 10000 nM): 87.6% and 85.8%
- normalised viability ([20]; 3 nM): 91.9% and 96%
- normalised viability ([20]; 30 nM): 89.1% and 88.1%
- normalised viability ([20]; 100 nM): 92.8% and 107%
- normalised viability ([21]; 3 nM): 110% and 101%
- normalised viability ([21]; 30 nM): 95.9% and 104%
- normalised viability ([21]; 100 nM): 97% and 94%
- normalised viability ([22]; 3 nM): 94.8% and 95.5%
- normalised viability ([22]; 30 nM): 91.5%
- normalised viability ([22]; 100 nM): 102% and 94.6%
- normalised viability ([23]; 3 nM): 113% and 108%
- normalised viability ([23]; 30 nM): 105% and 98.2%
- normalised viability ([23]; 100 nM): 103%
- normalised viability ([24]; 10 nM): 94.2% and 74.2%
- normalised viability ([24]; 1000 nM): 108% and 87%
- normalised viability ([24]; 10000 nM): 110% and 97.4%
